The values that follow come from patent US5272155A, “(+)-2-methylpiperidine as modulator of cholinergic systems” (Abbott Laboratories, priority 1991, dated 1993).

“Also recorded” adds a separate entry of the source. Like-named read-outs stand apart in the source and are kept apart here.

One data set has as its system rat brain receptor sites. As to conditions: cited from earlier work.
The nature of data set [1]: Mean arterial pressure (MAP) in rats, iv administration. As to conditions: for Mean Arterial Pressure (MAP): mean (SEM), (+) N = 5 rats, (-) N = 3 rats; for effect on mean arterial pressure / blood pressure: 0.1-3.0 mg/kg, result in words. Format: in vivo, rat. As for the experimental part:
(§1) Methods for surgical preparations of rats for electrical stimulation of brain and measurement of cortical CBF are detailed by Linville and Arneric (1991).
(§2) Intravenous (iv) administration of (+) 2-methylpiperidine ((+)2-MP) and (-)2-MP (0.1-3.0 mg/kg) were examined for their effect on mean arterial pressure (MAP), resting CBF and increases in cortical CBF elicited by electrically stimulating the BF (.perspectiveto.25 Hz; 100 uA; 10 sec. train).

The test system of data set [2] is nicotinic receptor. Briefly: Cortical CBF response elicited by electrical stimulation of the basal forebrain (BF) in rats. The class given is in vivo, rat. Particulars: iv; for BF-Elicited CBF Response, % of Resting Cortical CBF: mean (SEM), (+) N = 5 rats, (-) N = 3 rats; for effect on BF-elicited CBF response: 0.1-3.0 mg/kg, result in words. The procedure:
as §1, §2

Another data set deals with male CD1 mice. Briefly: Acute lethality in mice within 24 hours. As to conditions: i.p.; for Deaths in 24 hours: mandelic acid salt, deaths/animals; for tolerability: 30 and 100 mg/kg. Format: in vivo, mouse. From the text: Compounds were given as the respective mandelic acid salts.
The subject of another data set is mouse. Briefly: (-)Nicotine induced mouse lethality after pretreatment. The class given is in vivo.
For data set [3], the system named is nicotinic receptor. Briefly: Resting cortical cerebral blood flow (CBF) in rats, iv administration. Particulars: for Resting Cortical CBF, % of Resting CONTROL: mean (SEM), (+) N = 5 rats, (-) N = 3 rats; for effect on resting CBF: 0.1-3.0 mg/kg, result in words. Format: in vivo, rat. The procedure: as §1, §2
The subject of a further data set is CD1 mice. Briefly: Mouse elevated-plus maze (conflict test, anxiolytic activity). The class given is in vivo. Particulars: (+)2-methylpiperidine 0.1 mg/kg, IP, 5 min prior to (-)nicotine (FIG. 1B); n=8. As for the experimental part: FIG. 1A is a graph of time mice spend in the open arms of the elevated-plusmaze (a conflict test that probes anxiolytic activity) as a function of the dose of (-)nicotine administered to the mice.
FIG. 1B is a graph of time mice spend in the open arms of the elevated-plusmaze as a function of the administration of (+)2-methylpiperidine (0.1 mg/kg) or (-)nicotine administered separately or in combination.
The mouse elevated-plus maze is a conflict test that probes anxiolytic activity (Lister, Pyschopharmacology, 1987, 92:180). It is based on the fact that exposure of mice to an elevated open arm leads to an avoidance response considerably stronger than that evoked by exposure to an enclosed arm.
The apparatus required to perform this test is made of plexiglass and consists of two open arms (17×8 cm) and two enclosed arms (17×8×15 cm) extending from a central platform (8×8 cm). It is mounted on an opaque plexiglass base rising 39 cm above the floor. Mice are released on one of the open arms and the time spent in the open and enclosed arms is recorded during a 5 min. test period.
CD1 mice (n=8 per group) received systemic (-)nicotine injections (0, 0.03, 0.1 or 0.3 mg/kg, IP) fifteen minutes before they were allowed to explore the plus-maze for a 5 minute test period.

Data set [4] in a line: Combined effects of (-)nicotine and (+)2-methylpiperidine on rectal temperatures of mice. The class given is in vivo, mouse. Particulars: for Rectal temperature: mean ± S.E.M.
A short description of data set [5]: Hypothermia: rectal temperature of mice. The class given is in vivo, mouse. As to conditions: i.p.; for Rectal temperature 15 min. later: saline 38.3 ± 0.1, mean ± S.E.M. The procedure:
Adult male CD1 mice (n=5-7/group) were injected with (+)2-methylpiperidine (0, 10 or 100 mg/kg, i.p.) and rectal temperatures were assessed (YSI Model 43 TA) 15 min. later.

The next data set relates to Adult male CD1 mice. Description: Habituation / locomotor activity in automated activity monitors. The class given is in vivo, mouse. As to conditions: for locomotor activity, first 10 min after introduction to the novel environment: Saline=3680±169. As for the experimental part: Adult male CD1 mice (n=8/group) were injected with (+)2-methylpiperidine (0, 1.0, 3.0 or 10.0 mg/kg, i.p.) immediately prior or 60 min. prior to placement in automated activity monitors (Omnitech, Columbus, Ohio). These enclosures, measuring 40×40×42 cm, are equipped with a series of photocells and generate measurements of a variety of locomotor activities.

[6] abbreviates: 0.1 mg/kg, dose 0: (+) 76 (3), (-) 90 (6).
Setting [7] is: 0.1 mg/kg, dose 0: (+) 153 (11), (-) 130 (8).
The mark [8] stands for this setting: pretreatment 10.0 mg/kg, (-)nicotine 3 mg/kg.
Setting [9] is: pretreatment 10.0 mg/kg, (-)nicotine 6 mg/kg.
Where [10] appears, read: pretreatment 10.0 mg/kg, (-)nicotine 9 mg/kg.
Setting [11] is: 0.1 mg/kg, dose 0: (+) 100 (10), (-) 100 (13).

`CC1CCCCN1` (racemic) [(±)-2-methylpiperidine, reference compound]: the “enhancement of the binding of nicotine / nicotinic ligands” value with rat brain receptor sites (Sloan et al. 1985) is listed as “high degree of specificity in enhancing the binding of nicotine in the rat brain”.

With `CC1CCCCN1` (single isomer, unassigned; (-)) [(-)2-methylpiperidine, reference compound], the “Mean Arterial Pressure (MAP)” value in [1] (setting [6]) is 78 (4) mmHg; in data set [1] (0.3 mg/kg) it was 83 (4) mmHg; in data set [1] (1.0 mg/kg) it was 80 (8) mmHg; in data set [1] (3.0 mg/kg), 73 (4) mmHg. Also, the “BF-Elicited CBF Response, % of Resting Cortical CBF” value in the data set with nicotinic receptor [2] (setting [7]) is 113 (30) %; in the data set on nicotinic receptor [2] (0.3 mg/kg) it was 101 (28) %; with nicotinic receptor [2] (1.0 mg/kg) it was 88 (26) %; in the data set with nicotinic receptor [2] (3.0 mg/kg), 81 (30) %. For the same molecule, in the data set with nicotinic receptor [2], the “effect on BF-elicited CBF response” value is listed as “no ability to enhance”. The “Deaths in 24 hours” value with male CD1 mice (30 mg/kg) and in the data set on male CD1 mice (100 mg/kg) was 0/5 each time. In addition, in the data set on male CD1 mice, the tolerability entry is “well tolerated by male CD1 mice, and did not cause any deaths within 24 hours”. Moreover, the DEATHS/24 hours in the data set with mouse (setting [8]) was 0/6; in the data set with mouse (setting [9]), 0/6; in the data set on mouse (setting [10]), 4/6. Further, the “Resting Cortical CBF, % of Resting CONTROL” value in the data set with nicotinic receptor [3] (setting [11]) is 99 (32) %; with nicotinic receptor [3] (0.3 mg/kg), 86 (29) %; in the data set with nicotinic receptor [3] (1.0 mg/kg), 74 (27) %; in the data set on nicotinic receptor [3] (3.0 mg/kg) it was 70 (30) %. The “effect on resting CBF” value with nicotinic receptor [3] is recorded as “no ability to enhance”.

`CC1CCCCN1` (racemic) [(+)2-methylpiperidine, (+)-2-methylpiperidine]: the “Mean Arterial Pressure (MAP)” value in data set [1] (setting [6]) was 82 (6) mmHg; in data set [1] (0.3 mg/kg), 87 (5) mmHg; in data set [1] (1.0 mg/kg), 92 (7) mmHg; in data set [1] (3.0 mg/kg), 87 (7) mmHg. Further, the results for the “effect on mean arterial pressure / blood pressure” value in data set [1] and in data set [1] (listed as (+)2-MP) were “no overt on blood pressure” and “No remarkable effects”, respectively. The “anxiolytic activity in combination with a non-effective dose of (-)nicotine” value with CD1 mice was “able to enhance the anxiolytic activity of a non-effective dose of (-)nicotine”. The “BF-Elicited CBF Response, % of Resting Cortical CBF” value with nicotinic receptor [2] (setting [7]) was 203 (21) %; with nicotinic receptor [2] (0.3 mg/kg), 222 (20) %; in the data set on nicotinic receptor [2] (1.0 mg/kg) it was 222 (23) %; with nicotinic receptor [2] (3.0 mg/kg), 220 (19) %. The “effect on BF-elicited CBF response” value with nicotinic receptor [2] (listed as (+)2-MP) was “effective in enhancing resting CBF and the BF-elicited CBF response”; in the data set on nicotinic receptor [2] (listed as (+)-2MP), “enhanced”. Moreover, the “Deaths in 24 hours” value in the data set on male CD1 mice (30 mg/kg) and with male CD1 mice (100 mg/kg) was 0/5 each time. Moreover, in the data set on male CD1 mice, the tolerability result was “well tolerated by male CD1 mice, and did not cause any deaths within 24 hours”. Also, the “enhancement of the binding of nicotine / nicotinic ligands” value in the data set on rat brain receptor sites (Sloan et al. 1985, listed as (+)isomer of (±)2-methylpiperidine) was “enhances the binding of nicotinic ligands to rat brain receptor sites”. Moreover, the “effect on the lethality elicited by (-)nicotine” value in the data set with mouse (i.p. (-)nicotine, result in words) is “did not potentiate the lethality; also recorded: does not potentiate (-)nicotine induced acute lethality”. Also, the DEATHS/24 hours is reported as 0/6 in the data set on mouse (pretreatment 0.1 mg/kg, (-)nicotine 3 mg/kg); 1/6 in the data set with mouse (pretreatment 0.1 mg/kg, (-)nicotine 6 mg/kg); 2/6 in the data set with mouse (pretreatment 0.1 mg/kg, (-)nicotine 9 mg/kg); 0/6 in the data set with mouse (setting [8]); 1/8 in the data set on mouse (setting [9]); 3/6 in the data set with mouse (setting [10]). Besides, the Rectal temperature in [4] ((+)2-MP 0.1 mg/kg (so in the source) pretreatment, then (-)nicotine 1.0 mg/kg, * p<0.05) is 36.0 ± 0.7 °C; in data set [4] ((+)2-MP 1.0 mg/kg pretreatment, then (-)nicotine 0.3 mg/kg) it was 37.8 ± 0.2 °C; in data set [4] ((+)2-MP 10.0 mg/kg pretreatment, then (-)nicotine 0.3 mg/kg), 37.5 ± 0.3 °C; in data set [4] ((+)2-MP 10.0 mg/kg pretreatment, then (-)nicotine 1.0 mg/kg, * p<0.05) it was 36.5 ± 0.5 °C. In addition, in data set [4] ((+)2-methylpiperidine 1 and 10 mg/kg, i.p., 3 min. prior to (-)nicotine), the “effect on the hypothermic response to (-)nicotine” value is listed as “did not potentiate the hypothermic response to (-)nicotine; also recorded: the hypothermic response of the low dose of (-)nicotine (0.3 mg/kg) was actually attenuated; also recorded: the higher dose of (-)nicotine was unaffected”. For the same molecule, the “Rectal temperature 15 min. later” value in [5] (10 mg/kg, baseline 38.2 ± 0.1) came to 38.2 ± 0.1 °C; in [5] (100 mg/kg, baseline 38.3 ± 0.1), 38.2 ± 0.2 °C. Also, the “effect on rectal temperature” value in data set [5] (10 or 100 mg/kg, 15 min, as well as 60 and 120 min later) is recorded as “without effect”. Also, the “locomotor activity, first 10 min after introduction to the novel environment” value in the data set on Adult male CD1 mice (3.0 mg/kg, i.p., 60 min prior) amounted to 3402±164 activity counts; in the data set on Adult male CD1 mice (10 mg/kg, i.p., 60 min prior), 3349±126 activity counts. For the same molecule, in the data set on Adult male CD1 mice (1.0, 3.0 or 10.0 mg/kg, i.p., drug-by-time interaction p<0.02), the “effect on the habituation process” value is “dose-related enhancement of the habituation process”. In addition, the “effect on locomotor activity (impairment or sedation)” value with Adult male CD1 mice (3.0 or 10.0 mg/kg, 60 min prior, first 10 min) is recorded as “did not significantly decrease the high level of locomotor activity”. In addition, the “Resting Cortical CBF, % of Resting CONTROL” value in the data set with nicotinic receptor [3] (setting [11]) is 126 (15) %; with nicotinic receptor [3] (0.3 mg/kg), 133 (22) %; in the data set with nicotinic receptor [3] (1.0 mg/kg), 146 (28) %; in the data set on nicotinic receptor [3] (3.0 mg/kg), 140 (27) %. Moreover, the “effect on resting CBF” value in the data set with nicotinic receptor [3] (listed as (+)2-MP) is on record as “effective in enhancing resting CBF”; in the data set with nicotinic receptor [3] (listed as (+)-2MP), “enhanced”.
